Among the data in article PMC7436063, “Bioactive Chemical Composition of Cannabis Extracts and Cannabinoid Receptors” (Molecules, 2020) are EC50 and IC50 values, retold here.

Each structure is given as a SMILES string.

For one assay, the target named is T1, CB2 (Homo sapiens, UniProt P34972).
T1 construct: gene CNR2; expressed in CHO-K1-CB2 cell line (DiscoverX), cAMP reporter platform
Nature of the assay: cAMP assay (HitHunter), inhibition of forskolin-stimulated cAMP in CHO-K1-CB2 cells. Format: cell-based. The text has this: cAMP assay (HitHunter), inhibition of forskolin-stimulated cAMP in CHO-K1-CB2 cells on CB2

In the next assay the target is T2, CB1 (Homo sapiens, UniProt P21554).
T2 construct: gene CNR1; expressed in CHO-K1-CB1 cell line (DiscoverX), cAMP reporter platform
Nature of the assay: cAMP assay (HitHunter), inhibition of forskolin-stimulated cAMP in CHO-K1-CB1 cells. The class given is cell-based. The text has this:
cAMP assay (HitHunter), inhibition of forskolin-stimulated cAMP in CHO-K1-CB1 cells on CB1
A general note: cAMP levels reflect the balance of adenylyl cyclase and phosphodiesterase activity.

Where [1] appears, read: read-out: Receptor Potency (μM) / ^b IC50 (Antagonist) / CB1.

T1 sequence (P34972 whole entry): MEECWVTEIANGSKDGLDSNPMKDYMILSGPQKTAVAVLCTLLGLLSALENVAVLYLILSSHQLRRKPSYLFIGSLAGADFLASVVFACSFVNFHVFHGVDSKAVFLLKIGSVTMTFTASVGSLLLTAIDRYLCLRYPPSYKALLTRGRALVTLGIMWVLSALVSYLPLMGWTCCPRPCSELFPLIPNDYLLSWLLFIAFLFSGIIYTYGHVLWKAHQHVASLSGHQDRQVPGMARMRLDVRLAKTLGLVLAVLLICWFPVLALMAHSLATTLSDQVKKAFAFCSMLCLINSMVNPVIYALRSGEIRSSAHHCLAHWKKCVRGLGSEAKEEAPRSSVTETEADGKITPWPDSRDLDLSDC
T2 sequence (P21554 whole entry): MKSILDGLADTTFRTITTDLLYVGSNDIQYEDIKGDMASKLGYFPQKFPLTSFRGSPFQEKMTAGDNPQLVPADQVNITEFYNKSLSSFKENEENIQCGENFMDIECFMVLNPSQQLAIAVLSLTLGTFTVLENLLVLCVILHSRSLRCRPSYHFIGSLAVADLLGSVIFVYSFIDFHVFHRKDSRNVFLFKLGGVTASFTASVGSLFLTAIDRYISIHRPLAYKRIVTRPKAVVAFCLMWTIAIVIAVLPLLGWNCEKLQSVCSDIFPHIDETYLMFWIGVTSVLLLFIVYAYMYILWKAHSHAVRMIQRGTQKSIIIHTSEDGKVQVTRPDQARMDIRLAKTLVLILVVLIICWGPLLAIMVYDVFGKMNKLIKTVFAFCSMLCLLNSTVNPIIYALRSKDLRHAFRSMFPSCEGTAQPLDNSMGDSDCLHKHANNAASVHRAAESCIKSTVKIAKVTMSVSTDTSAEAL

Consider `C=C(C)[C@@H]1CCC(C)=C[C@H]1c1c(O)cc(CCCCC)c(C(=O)O)c1O` [CBDA], for which the EC50 on CB2 (read-out: Receptor Potency (μM) / ^a EC50 (Agonist) / CB2) came to 17 ± 4 µM; at CB1 (read-out: Receptor Potency (μM) / ^a EC50 (Agonist) / CB1), 17 ± 3 µM. For the same compound, the IC50 on CB2 (setting [1]) and on CB1 (setting [1]) was more than 10 µM in each case.
